Laboratory results taken from PubChem BioAssay (NCI).
Where “and” joins values, the source holds several entries; their conditions need not be identical. Equal entries are not always repeated.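 These data come from cells grown in 96-well plates and exposed to compound for 48 hours at five concentrations. GI50 is the concentration that inhibits growth by half. At the TGI there is no net growth.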

test system: MOLT-4 leukemia; assay: growth of human tumour cells (NCI), 48 h

Point of comparison: C=C(C1=CC(=O)C(C)(C)O1)[C@@H]1CC=C([C@@H]2CC[C@H]3[C@@]2(C)CC[C@H]2C(C)(C)C(=O)[C@H](O)C[C@]32C)[C@H](O)O1, TGI 3.96 µM. Against it:
- CC(C)c1ccc(/C=C2/C=C(c3ccc4ccccc4c3)OC2=O)cc1 — 14-fold higher, 56.8 µM
- COc1ccc(/C=C2\CCC(C)C3=C2NC(=S)NC3c2ccc(OC)c(OC)c2)cc1OC (stereo not given) — 6.4-fold higher, 25.3 µM
- COc1ccc(C(OCC2OC(n3cc(C)c(=O)[nH]c3=O)CC2n2cc(Cn3cc(I)c(=O)[nH]c3=O)nn2)(c2ccccc2)c2ccccc2)cc1 (stereo not given) — higher, > 100 µM
- O=S1(=O)NC(=NCc2c[nH]c3ccccc23)N(c2ccccc2)c2ccncc21 — higher, > 100 µM
- COc1ccc(CNc2nc(NCc3ccc(OC)c(OC)c3)nc(NC3CCCCC3)n2)cc1 — higher, > 100 µM
- CC1=CC2C(O1)C1C(=O)C=CC(=O)C1=CC2[N+](=O)[O-] (stereo not given) — higher, > 24.3 µM
- C=C(Br)C(C)(Cl)CCC(Br)C(C)(C)Cl (stereo not given) — higher, > 100 µM
- O=C(CCC(=O)c1ccc(Cl)cc1)NO — higher, > 100 µM
- COc1c(C)c(C/C=C(\C)CCCCO[Si](c2ccccc2)(c2ccccc2)C(C)(C)C)c(OC)c(OC)c1OC — higher, > 46.4 µM
- CN1CCN([C@H]2C[C@H]3[C@@H]4CC=C5C[C@@H](O)CC[C@]5(C)[C@H]4CC[C@]3(C)C2=O)CC1 — higher, > 100 µM
- C[C@@]12C[C@@H](c3ccccc3O1)N1CCCCSC1=N2 — higher, > 100 µM
- CCOC(=O)Nn1c(C)nnc1-c1ccccc1 — higher, > 100 µM
- Cc1cn(C2CC(n3cc(Cn4cc(I)c(=O)[nH]c4=O)nn3)C(CO)O2)c(=O)[nH]c1=O (stereo not given) — higher, > 100 µM
- Cc1cc(O)c2c(=O)c3ccccc3[nH]c2c1 — higher, > 100 µM
- N=c1n(C(=O)N2CCCC2)c2cc(Cl)ccc2n1C1=NCCN1 — higher, > 100 µM

Compound Cc1c2cnccc2c(C)c2c1c1ccccc1n2CCCN has a GI50 of less than 0.0178 µM.

For Cc1c2cnccc2c(C)c2c1c1ccccc1n2CCCN, the TGI was 0.472 µM and 0.217 µM.

test system: NCI-H226 lung; assay: growth of human tumour cells (NCI), 48 h

Point of comparison: CCCNC1=C2CC(C)CC(OC)[C@@H](O)[C@H](C)/C=C(\C)C(OC(N)=O)C(OC)/C=C\C=C(/C)C(=O)NC(=CC1=O)C2=O (stereo not given in full), TGI 5.21 µM. Against it:
- CCNC(=S)N/N=C/c1cc([N+](=O)[O-])ccc1O — higher, > 100 µM
- Cc1cc(N(CCC#N)CCC#N)ccc1/C(N=Nc1ccc(Cl)cc1)=N\NC(=O)c1ccccc1 — higher, > 100 µM
- CCc1ccc(CCN2CCCCC2)nc1 — higher, > 100 µM
- O=C(NNC(=O)c1ccccc1SSc1ccccc1C(=O)NNC(=O)c1ccccc1S)c1ccccc1S — higher, > 100 µM
- O=C1/C(=C/c2ccc(O)cc2)CC/C1=C\c1ccc(O)cc1 — higher, > 100 µM
- CC(C)C1/C(=N/O)CC(c2ccccc2)N(N=O)C1c1ccccc1 (stereo not given) — higher, > 100 µM
- COc1cc(/C=C2\S/C(=N/Nc3nc(-c4ccc(Br)cc4)cs3)NC2=O)cc(OC)c1OC — 2.2-fold higher, 11.7 µM
- CCC1(O)CC2CC(=O)OC2C1O (stereo not given) — higher, > 100 µM
- C(/c1ccco1)=c1/nc(-c2ccccc2)n2c1nc1ccccc12 — higher, > 100 µM
- Oc1cccc2c(Cl)ccnc12 — higher, > 100 µM
- Cc1cccc(/C=N/NC(=S)Nc2ccccc2)n1 — higher, > 25 µM
- N#CC1=C(N)N(c2ccccc2)C(c2ccco2)C1(C#N)C#N (stereo not given) — 8.1-fold higher, 42 µM
- Cc1cc(=O)[nH]c(NN2C(Cl)C(=O)C2c2ccccc2O)n1 (stereo not given) — 1.8-fold higher, 9.16 µM
- CC(C)c1ccc(/C=C2/C=C(c3ccc4ccccc4c3)OC2=O)cc1 — higher, > 100 µM
- COc1ccc(/C=C2\CCC(C)C3=C2NC(=S)NC3c2ccc(OC)c(OC)c2)cc1OC (stereo not given) — higher, > 100 µM
- COc1ccc(C(OCC2OC(n3cc(C)c(=O)[nH]c3=O)CC2n2cc(Cn3cc(I)c(=O)[nH]c3=O)nn2)(c2ccccc2)c2ccccc2)cc1 (stereo not given) — higher, > 100 µM
- O=S1(=O)NC(=NCc2c[nH]c3ccccc23)N(c2ccccc2)c2ccncc21 — higher, > 100 µM
- COc1ccc(CNc2nc(NCc3ccc(OC)c(OC)c3)nc(NC3CCCCC3)n2)cc1 — higher, > 100 µM
- C=C(C1=CC(=O)C(C)(C)O1)[C@@H]1CC=C([C@@H]2CC[C@H]3[C@@]2(C)CC[C@H]2C(C)(C)C(=O)[C@H](O)C[C@]32C)[C@H](O)O1 — 7.7-fold higher, 40.3 µM
- CC1=CC2C(O1)C1C(=O)C=CC(=O)C1=CC2[N+](=O)[O-] (stereo not given) — higher, > 100 µM
- C=C(Br)C(C)(Cl)CCC(Br)C(C)(C)Cl (stereo not given) — 13-fold higher, 66.2 µM
- O=C(CCC(=O)c1ccc(Cl)cc1)NO — higher, > 100 µM
- COc1c(C)c(C/C=C(\C)CCCCO[Si](c2ccccc2)(c2ccccc2)C(C)(C)C)c(OC)c(OC)c1OC — higher, > 100 µM
- CN1CCN([C@H]2C[C@H]3[C@@H]4CC=C5C[C@@H](O)CC[C@]5(C)[C@H]4CC[C@]3(C)C2=O)CC1 — higher, > 100 µM
- C[C@@]12C[C@@H](c3ccccc3O1)N1CCCCSC1=N2 — higher, > 100 µM
- CCOC(=O)Nn1c(C)nnc1-c1ccccc1 — higher, > 100 µM
- Cc1cn(C2CC(n3cc(Cn4cc(I)c(=O)[nH]c4=O)nn3)C(CO)O2)c(=O)[nH]c1=O (stereo not given) — higher, > 100 µM
- Cc1cc(O)c2c(=O)c3ccccc3[nH]c2c1 — 18-fold higher, 94.3 µM
- N=c1n(C(=O)N2CCCC2)c2cc(Cl)ccc2n1C1=NCCN1 — higher, > 100 µM

Point of comparison: Cc1c2cnccc2c(C)c2c1c1ccccc1n2CCCN, GI50 1.18 µM. Against it:
- CCCNC1=C2CC(C)CC(OC)[C@@H](O)[C@H](C)/C=C(\C)C(OC(N)=O)C(OC)/C=C\C=C(/C)C(=O)NC(=CC1=O)C2=O (stereo not given in full) — 4.8-fold lower, 0.244 µM

In the case of Cc1c2cnccc2c(C)c2c1c1ccccc1n2CCCN, the TGI is reported as 1.86 µM and 2.78 µM.

test system: NCI-H460 lung; assay: growth of human tumour cells (NCI), 48 h

Point of comparison: COc1c(C)c(C/C=C(\C)CCCCO[Si](c2ccccc2)(c2ccccc2)C(C)(C)C)c(OC)c(OC)c1OC, TGI 25 µM. Against it:
- CCNC(=S)N/N=C/c1cc([N+](=O)[O-])ccc1O — higher, > 100 µM
- Cc1cc(N(CCC#N)CCC#N)ccc1/C(N=Nc1ccc(Cl)cc1)=N\NC(=O)c1ccccc1 — higher, > 100 µM
- CCc1ccc(CCN2CCCCC2)nc1 — higher, > 100 µM
- O=C(NNC(=O)c1ccccc1SSc1ccccc1C(=O)NNC(=O)c1ccccc1S)c1ccccc1S — higher, > 100 µM
- O=C1/C(=C/c2ccc(O)cc2)CC/C1=C\c1ccc(O)cc1 — higher, > 100 µM
- CC(C)C1/C(=N/O)CC(c2ccccc2)N(N=O)C1c1ccccc1 (stereo not given) — 2.7-fold higher, 67.5 µM
- COc1cc(/C=C2\S/C(=N/Nc3nc(-c4ccc(Br)cc4)cs3)NC2=O)cc(OC)c1OC — within 1.5-fold, 37.4 µM
- CCCNC1=C2CC(C)CC(OC)[C@@H](O)[C@H](C)/C=C(\C)C(OC(N)=O)C(OC)/C=C\C=C(/C)C(=O)NC(=CC1=O)C2=O (stereo not given in full) — within 1.5-fold, 29.4 µM
- CCC1(O)CC2CC(=O)OC2C1O (stereo not given) — higher, > 100 µM
- C(/c1ccco1)=c1/nc(-c2ccccc2)n2c1nc1ccccc12 — higher, > 100 µM
- Oc1cccc2c(Cl)ccnc12 — higher, > 100 µM
- Cc1cccc(/C=N/NC(=S)Nc2ccccc2)n1 — 2.7-fold lower, 9.13 µM
- Cc1cc(=O)[nH]c(NN2C(Cl)C(=O)C2c2ccccc2O)n1 (stereo not given) — higher, > 100 µM
- CC(C)c1ccc(/C=C2/C=C(c3ccc4ccccc4c3)OC2=O)cc1 — higher, > 100 µM
- COc1ccc(/C=C2\CCC(C)C3=C2NC(=S)NC3c2ccc(OC)c(OC)c2)cc1OC (stereo not given) — higher, > 100 µM
- O=S1(=O)NC(=NCc2c[nH]c3ccccc23)N(c2ccccc2)c2ccncc21 — higher, > 100 µM
- COc1ccc(CNc2nc(NCc3ccc(OC)c(OC)c3)nc(NC3CCCCC3)n2)cc1 — higher, > 100 µM
- C=C(C1=CC(=O)C(C)(C)O1)[C@@H]1CC=C([C@@H]2CC[C@H]3[C@@]2(C)CC[C@H]2C(C)(C)C(=O)[C@H](O)C[C@]32C)[C@H](O)O1 — within 1.5-fold, 31.6 µM
- CC1=CC2C(O1)C1C(=O)C=CC(=O)C1=CC2[N+](=O)[O-] (stereo not given) — within 1.5-fold, 36.4 µM
- C=C(Br)C(C)(Cl)CCC(Br)C(C)(C)Cl (stereo not given) — higher, > 100 µM
- O=C(CCC(=O)c1ccc(Cl)cc1)NO — higher, > 100 µM
- CN1CCN([C@H]2C[C@H]3[C@@H]4CC=C5C[C@@H](O)CC[C@]5(C)[C@H]4CC[C@]3(C)C2=O)CC1 — higher, > 100 µM
- C[C@@]12C[C@@H](c3ccccc3O1)N1CCCCSC1=N2 — higher, > 100 µM
- CCOC(=O)Nn1c(C)nnc1-c1ccccc1 — higher, > 100 µM
- Cc1cc(O)c2c(=O)c3ccccc3[nH]c2c1 — higher, > 100 µM

With CCCNC1=C2CC(C)CC(OC)[C@@H](O)[C@H](C)/C=C(\C)C(OC(N)=O)C(OC)/C=C\C=C(/C)C(=O)NC(=CC1=O)C2=O (stereo not given in full) the GI50 was 0.0541 µM.

In the case of Cc1c2cnccc2c(C)c2c1c1ccccc1n2CCCN, the GI50 is reported as 0.113 µM and 0.0472 µM.

Cc1c2cnccc2c(C)c2c1c1ccccc1n2CCCN was tested, and the TGI was 0.335 µM and 0.22 µM.
